Values quoted from earlier work as cited in paper PMC4552746, “Conformational Properties of Seven Toac-Labeled Angiotensin I Analogues Correlate with Their Muscle Contraction Activity and Their Ability to Act as ACE Substrates” (PLoS ONE, 2015).

Test system: thoracic rabbit aorta strips
Design: method as in earlier work
Conditions: ref 48 (Cordopatis and Theodoropoulos)

## [1-Aib]-angiotensin II [Aib^1-AngII]
  Potency, in words: displays high potency
